Legend:
[1] = tested on: back skin of SKH-1 hairless mouse; experiment: Protection of skin tissues from UVB irradiation in hairless mice; format: in vivo
Protocol: 5-6 week old female hairless mice (SKH-hr 1) were raised for 14 days at 24±2° C. with 50±10% relative humidity and 12 hour day/night cycle. 30-60 minutes before the experiment, a sample was hyperdermically injected on 5 spots of the mice and the backs of the mice were irradiated by UVB. 5 mice per each group were put in a cage (20×15×5 cm) and UVB irradiation was performed using a UV lamp (HP-15M, 280-400 nm, max. 312 nm; Atto Co., Japan) at 15 cm distance by 15 kJ/m^2. After the completion of UV irradiation for 24 hours, back skin was cut and stored at −70° C. until peroxidation was measured.
UVB irradiation causes serious lipid peroxidation in skin tissues, so measurement of the peroxided lipid content might lead to the measurement of skin damages. Particularly, UVB was irradiated on the back skin of SKH-1 hairless mouse. 48 hours later, the back skin tissues were cut to measure lipid peroxidation by thiobarbituric acid (TBA) method. The back skin of the mouse was put in a 10×50 mM K-P buffer solution for homogenation.
Hydrogen peroxidation was also investigated. The frozen back skin section was put in 0.1 M Tris-HCl buffer solution (pH 7.5) containing 1 mg/ml of glucose and 1 mg/ml diaminobenzidine (DAB), which was cultured at 37° C. for 5-6 hours. After being washed with distilled water, the solution was stained with 2% methyl green for 60 minutes. Nucleus stained blue and DAB peroxidase (brown) were observed under a microscope.

HEK-N/F cells = experiment: Protection of cells from oxidative damage induced by t-butylhydroperoxide; format: cell-based, human; conditions: 1.5 mM t-butylhydroperoxide 3 hours; for TBARS (pmol/mg protein): compound 50.0 µg/ml
Protocol: t-butylhydroperoxide is metabolized into a free radical intermediate as it comes in a cell, so that it causes lipid peroxidation, resulting in cell damage. This phenomenon is similar to that caused by oxidataive stress accumulated in cells and tissues. […] HEK-N/F, an epidermal cell line of a newborn baby, was treated with 1.5 mM of t-butylhydroxyperoxide for 3 hours.

[2] = DPPH radical scavenging activity; format: biochemical; conditions: Table 3
Protocol: In order to extract an effective ingredient having an anti-oxidant activity from Cercis chinensis, an experiment was performed following the procedure represented in a schematic diagram of FIG. 1. Particularly, 1 kg of leaves and stems of Cercis chinensis, dried in shadow, were grinded to powder using a pulverizer, which was extracted by ethanol (EtOH) at room temperature twice at intervals of two weeks. For the extraction, ethanol solutions were prepared by adding ethanol gradually, 10% at a time, from 0% to 100%. The prepared ethanol solutions were used for the extraction. […] But, it looses absorbance when being scavenged. Based on that point, an anti-oxidant activity can be measured using DPPH. […] Then, each solution was distributed into a 96 well plate by 10 μl each, into which 190 μl of DPPH(Sigma, St. Louis, Mo, USA) solution whose ethanol concentration was 2×10^−4 M/ml was added. The plate was just left at room temperature for 30 minutes. Finally, OD517 was measured at 517 nm. For a control, DMSO was added instead of the sample, and changes of optical density were investigated. […] DDPH Radical Scavenging Activity (%)=(Acontrol−Asample)/(Acontrol)×100 <Mathematica Formula 1>
Acontrol: Optical density of control group (sample was not added),
Asample: Optical density of experimental group (sample was added).
In order to identify a fraction having an anti oxidant activity among hexane Fr, EtOAc Fr and BuOH Fr obtained above, a DPPH radical scavenging activity was measured using each extract of each fraction following the method used above. At this time, vitamin E, known to have high DPPH radical scavenging activity, was used as a comparing group.
At this time, BHA (tert-butyl-4 hydroxyanisole) and α-tocopherol, synthetic anti-oxidant agents, were used as positive controls.

[3] = Nitric oxide scavenging activity; format: biochemical; design: Nitric oxide scavenging activity (%): concentration or dose not given beside the values
[4] = Hydroxyl radical scavenging activity (deoxyribose/TBA, method of Halliwell); format: biochemical; conditions: for Hydroxyl radical scavenging activity (%): 10 μg of sample, total volume 1 ml
Protocol: Hydroxyl radical (HO.) is generated by the reaction of a metal ion or a superoxide radical. Owing to its strong reactivity, hydroxyl radical causes oxidative damages to DNA, protein and lipid in vivo. Nitric oxide (NO.) is reacted with a superoxide radical to generate a peroxy nitrite (ONOO—), also having strong reactivity. […] Particularly, each compound was mixed with 10 μg of a sample dissolved in DMSO, phosphate buffer (20 mM, pH 7.4) 5.6 mM deoxyribose, 0.1 mM FeCl3, 1 mM H2O2 and 0.1 mM ascorbic acid, making total volume 1 ml, which was then reacted at 37° C. for 60 minutes. 250 μl of 20% TCA and 250 μl of 1% TBA solution (dissolved in 50 mM NaOH) were added to the reaction solution, followed by thermal reaction at 95° C. for 5 minutes. After completing the reaction, OD532 was measured. Hydroxyl radical scavenging activity was calculated by the below
<Mathematical Formula 3>. BHA and α-tocopherol were used for a positive control. Hydroxyl Radical Scavenging Activity (%)=(Acontrol−Asample)/(Acontrol−Ablank)×100 <Mathematical Formula 3>
Acontrol: Optical density of control group well (sample was not added),
Asample: Optical density of experimental group well (sample was added),
Ablank: Optical density of well not added with sample, TCA and TBA

rat brain homogenates = experiment: Lipid peroxidation inhibitory activity (Fe2+/ascorbic acid, TBA method); conditions: Table 4
[5] = Superoxide radical scavenging activity (xanthine/xanthine oxidase, NBT); format: biochemical; conditions: Table 6
Protocol: Superoxide radical (O^2−) itself has a little reactivity, but is easily changed into H2O2 that generates hydroxyl radical having strong reactivity or is reacted with nitric oxide (NO.) to generate peroxy nitrite (ONOO^−) having strong reactivity, too. Thus, it might be a reason for oxidation of SH-group, nitration of protein tyrosine, lipid peroxidation and DNA damage. […] Basically, measurement of superoxide radical scavenging activity was performed by investigating the activity of superoxide dismutase (SOD), an enzyme scavenging superoxide by dismutation of the same. In the present invention, an activity of a sample to inhibit superoxide production by the enzyme reaction of xanthine/xanthine oxidase and its another activity to inhibit reaction (NBT+20^2−→NBTH2+2O2) generating formazan by reduction of nitro blue tetrazolium (referred as ‘NBT’ hereinafter) were measured. Particularly, wells of a 96-well plate were supplemented with 50 μl of 4 mM xanthine (Sigma), 50 μl of […] NBT (Sigma), 50 μl of 50 mM phosphate buffer (pH 7.8, 1 mM EDTA) and 10 μl of each sample, into which 40 μl of xanthine oxidase was added to induce a reaction. After the reaction was completed, each reaction solution was collected as scheduled, and OD550 was measured with an ELISA reader. […] Superoxide Radical Scavenging Activity (%)=(Acontrol−Asample)/(Acontrol−Ablank)×100 <Mathematical Formula 4> […]

## O=C1O[C@H]([C@@H](O)CO)C([O-])=C1OP(=O)([O-])[O-].O=C1O[C@H]([C@@H](O)CO)C([O-])=C1OP(=O)([O-])[O-].[Mg+2].[Mg+2].[Mg+2] [MAP, magnesium-L-ascorbyl-2-phosphate, reference compound]
[1]; treating amount 30 mg/kg + UVB irradiation
  TBARS (nmol/mg protein): 0.28 ± 0.06 nmol/mg protein
[1]; treating amount 50 mg/kg + UVB irradiation
  TBARS (nmol/mg protein): 0.16 ± 0.05 nmol/mg protein

## (−)-epigallocatechin-3-O-gallate [Chemical Formula 18]
HEK-N/F cells
  Cell survival rate (%): 46.6 ± 5.9%
  TBARS (pmol/mg protein): 1032.6 ± 103.5 pmol/mg protein
[2]
  DPPH radical scavenging activity IC50: 6.7 ± 0.4 µg/mL
[3]
  Nitric oxide scavenging activity (%): 26.2 ± 0.9%
  Nitric oxide scavenging activity (in words): comparatively high nitric oxide scavenging activity
[4]
  Hydroxyl radical scavenging activity (in words): remarkably higher hydroxyl radical scavenging activities
  Hydroxyl radical scavenging activity (%): 54.0%
Rat brain homogenates
  Lipid Peroxidation Inhibitory Activity IC50: 1.00 ± 0.08 µg/mL
[5]
  Superoxide radical scavenging activity IC50: 24.0 ± 3.5 µg/mL

## CC1OC(Oc2c(-c3cc(O)c(O)c(O)c3)oc3cc(O)cc(O)c3c2=O)C(OC(=O)c2cc(O)c(O)c(O)c2)C(O)C1O [Chemical Formula 13, myricetin-3-O-(2″-O-galloyl)-α-L-rhamnopyranoside]
HEK-N/F cells
  Cell survival rate (%): 45.1 ± 3.6%
  TBARS (pmol/mg protein): 1019.8 ± 154.0 pmol/mg protein
[2]
  DPPH radical scavenging activity IC50: 8.6 ± 0.7 µg/mL
[3]
  Nitric oxide scavenging activity (%): 23.0 ± 0.6%
[4]
  Hydroxyl radical scavenging activity (in words): remarkably higher hydroxyl radical scavenging activities
  Hydroxyl radical scavenging activity (%): 45.4%
Rat brain homogenates
  Lipid Peroxidation Inhibitory Activity IC50: 4.73 ± 0.41 µg/mL
[5]
  Superoxide radical scavenging activity IC50: 13.2 ± 2.5 µg/mL

## COc1cc(C2c3c(cc(OC)c(O)c3OC)CC(CO)C2CO[C@@H]2OC[C@@H](O)[C@H](O)[C@H]2O)cc(OC)c1O (single isomer, unassigned; (-)) [Chemical Formula 19, (−)-lyoniresinol 3a-O-β-D-xylopyranoside]
HEK-N/F cells
  Cell survival rate (%): 13.5 ± 2.0%
  TBARS (pmol/mg protein): 5981.1 ± 412.6 pmol/mg protein
[2]
  DPPH radical scavenging activity IC50: 45.7 ± 4.0 µg/mL
[3]
  Nitric oxide scavenging activity (%): 0.8 ± 0.6%
[4]
  Hydroxyl radical scavenging activity (%): 7.3%
Rat brain homogenates
  Lipid Peroxidation Inhibitory Activity IC50: 37.42 ± 2.06 µg/mL
[5]
  Superoxide radical scavenging activity IC50: >100 µg/mL

## (−)-epicatechin-3-O-gallate [Chemical Formula 17]
HEK-N/F cells
  Cell survival rate (%): 49.4 ± 6.4%
  TBARS (pmol/mg protein): 1007.3 ± 95.2 pmol/mg protein
[2]
  DPPH radical scavenging activity IC50: 6.8 ± 0.5 µg/mL
[3]
  Nitric oxide scavenging activity (%): 25.4 ± 1.2%
  Nitric oxide scavenging activity (in words): comparatively high nitric oxide scavenging activity
[4]
  Hydroxyl radical scavenging activity (in words): remarkably higher hydroxyl radical scavenging activities
  Hydroxyl radical scavenging activity (%): 39.9%
Rat brain homogenates
  Lipid Peroxidation Inhibitory Activity IC50: 2.90 ± 0.06 µg/mL
[5]
  Superoxide radical scavenging activity IC50: 11.9 ± 2.1 µg/mL

— patent publication US7763287B2, “Extract of Cercis chinensis having anti-oxidant activity and anti-aging activity, and cosmetical composition containing the extract for anti-oxidation, skin-aging protection and wrinkle improvement” (Hankook Pharm. Co., Inc., priority 2002, dated 2010)
